Experimental data as given in ChEMBL document CHEMBL6074684, “Structure-activity relationship study of novel evodiamine amino acid conjugates with potent anti-colorectal cancer efficacy” (Eur J Med Chem, 2025).
Converted amounts (≈) assume the structure as drawn. The source made the active and inactive calls. The calls are words filed in the database; no cut-off is given here.

Key:
LoVo [1] = experiment: Cell cycle arrest in human LoVo cells assessed as accumulation of cells at G2 phase cells at 10 nM incubated for 24 hrs by […]PI staining based flow cytometric analysis (reference value: 14.84 %); format: functional
LoVo [2] = experiment: Cell cycle arrest in human LoVo cells assessed as accumulation of cells at G1 phase cells at 30 nM incubated for 24 hrs by […]PI staining based flow cytometric analysis (reference value: 29.69 %); format: functional
LoVo [3] = experiment: Cell cycle arrest in human LoVo cells assessed as accumulation of cells at S phase cells at 90 nM incubated for 24 hrs by […]PI staining based flow cytometric analysis (reference value: 54.99 %); format: functional
RKO [4] = experiment: Cell cycle arrest in human RKO cells assessed as accumulation of cells at S phase at 90 nM incubated for 24 hrs by […]PI staining based flow cytometric analysis (reference value: 43.36 %); format: functional
MGC-803 = experiment: Antiproliferative activity against human MGC-803 cells assessed as inhibition of cell growth incubated for 72 hrs by MTT assay; format: functional, cell-based; conditions: MGC-803, 72 h
RKO [5] = experiment: Cell cycle arrest in human RKO cells assessed as accumulation of cells at G2 phase at 90 nM incubated for 24 hrs by […]PI staining based flow cytometric analysis (reference value: 20.07 %); format: functional
HT-29 = experiment: Antiproliferative activity against human HT-29 cells assessed as inhibition of cell growth incubated for 72 hrs by MTT assay; format: functional, cell-based; conditions: HT-29, 72 h
RKO [6] = experiment: Cell cycle arrest in human RKO cells assessed as accumulation of cells at G1 phase at 10 nM incubated for 24 hrs by […]PI staining based flow cytometric analysis (reference value: 35.29 %); format: functional
LoVo [7] = experiment: Induction of apoptosis in human LoVo cells assessed as apoptosis rate at 90 nM incubated for 24 hrs by Annexin V/PI staining based flow cytometric analysis (reference value: 4.71 %); format: functional
[8] = Apparent clearance during terminal phase in male Sprague-Dawley rat at 50 mg/kg, ip measured after 24 hrs by LC-MS/MS analysis; format: ADME, organism-based; conditions: in vivo, read-out: CLz/F (converted)
RKO [9] = experiment: Cell cycle arrest in human RKO cells assessed as accumulation of cells at G1 phase at 30 nM incubated for 24 hrs by […]PI staining based flow cytometric analysis (reference value: 35.29 %); format: functional
RKO [10] = experiment: Induction of morphological changes in human RKO cells assessed as appearance of contracted nucleus incubated for 24 hrs by Giemsa staining based microscopic analysis; format: functional, cell-based; conditions: dose 10-90 nM
LoVo [11] = experiment: Antiproliferative activity against human LoVo cells assessed as reduction in cell viability measured after 24 hrs; format: functional, cell-based; conditions: dose 40-200 nmol/L
LoVo [12] = experiment: Cell cycle arrest in human LoVo cells assessed as accumulation of cells at G2 phase cells at 90 nM incubated for 24 hrs by […]PI staining based flow cytometric analysis (reference value: 14.84 %); format: functional
LoVo [13] = experiment: Induction of morphological changes in human LoVo cells assessed as appearance of condensed morphology incubated for 24 hrs by Giemsa staining based microscopic analysis; format: functional, cell-based; conditions: dose 10-90 nM
[14] = Stability of compound at pH 7.4 assessed as residual rate measured after 2 days; format: physicochemical; conditions: buffer, time 2 day, read-out: Stability
[15] = Cmax in male Sprague-Dawley rat at 50 mg/kg, ip measured after 24 hrs by LC-MS/MS analysis; format: ADME, organism-based; conditions: in vivo
RKO [16] = experiment: Antiproliferative activity against human RKO cells assessed as inhibition of cell growth incubated for 72 hrs by MTT assay; format: functional, cell-based
[17] = Aqueous solubility of compound by HPLC analysis; format: physicochemical
[18] = biological target: T1, DNA topoisomerase 1 (Homo sapiens) (UniProt P11387); experiment: Inhibition of topoisomerase 1 (unknown origin) mediated DNA relaxation at 100 uM preincubated for 20 mins followed by pBR322 plasmid DNA addition and measured after 15 mins by red nucleic acid gel staining based agarose gel electrophoresis; conditions: time 35.0 min
T1 sequence (whole entry): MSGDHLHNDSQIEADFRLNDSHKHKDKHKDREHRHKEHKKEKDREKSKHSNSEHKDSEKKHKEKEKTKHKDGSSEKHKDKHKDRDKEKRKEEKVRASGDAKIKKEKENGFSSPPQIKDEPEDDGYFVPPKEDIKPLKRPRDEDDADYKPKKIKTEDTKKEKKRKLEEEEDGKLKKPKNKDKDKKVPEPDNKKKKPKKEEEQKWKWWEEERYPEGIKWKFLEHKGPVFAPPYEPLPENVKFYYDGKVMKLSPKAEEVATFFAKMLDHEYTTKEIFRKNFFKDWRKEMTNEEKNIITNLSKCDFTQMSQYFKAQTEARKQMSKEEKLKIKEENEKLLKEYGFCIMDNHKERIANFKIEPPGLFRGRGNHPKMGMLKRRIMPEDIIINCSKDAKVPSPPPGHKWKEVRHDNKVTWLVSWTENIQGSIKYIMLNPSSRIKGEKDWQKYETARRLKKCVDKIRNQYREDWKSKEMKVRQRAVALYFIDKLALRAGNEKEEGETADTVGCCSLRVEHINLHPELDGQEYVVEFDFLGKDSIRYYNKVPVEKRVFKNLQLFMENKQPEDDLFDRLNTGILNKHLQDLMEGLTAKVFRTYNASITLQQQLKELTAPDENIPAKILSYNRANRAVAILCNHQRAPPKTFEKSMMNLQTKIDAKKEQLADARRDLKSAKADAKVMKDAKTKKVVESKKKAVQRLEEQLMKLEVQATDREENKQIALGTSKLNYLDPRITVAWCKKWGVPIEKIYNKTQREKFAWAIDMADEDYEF

Mitochondrial membrane = experiment: Induction of mitochondrial membrane potential loss in human RKO cells assessed as TMRE positive cells at 90 nM incubated for 24 hrs by TMRE staining based flow cytometric analysis (reference value: 95.54 %); format: cell membranes
HGC-27 = experiment: Antiproliferative activity against human HGC-27 cells assessed as inhibition of cell growth incubated for 72 hrs by MTT assay; format: functional, cell-based; conditions: HGC-27, 72 h
[19] = Stability of compound at pH 4.6 assessed as residual rate measured after 2 days; format: physicochemical; conditions: buffer, time 2 day, read-out: Stability
[20] = Toxicity in male BALB/c nude mouse xenografted with human LoVo cells assessed as tolerance at 40 mg/kg, ip administered once daily for 14 days; format: organism-based; conditions: in vivo, 336 h, time 14 day

Compound: CC(C)(C)OC(=O)N[C@@H](CCC(N)=O)C(=O)Oc1ccc2[nH]c3c(c2c1)CCN1C(=O)c2cc(F)ccc2N(c2cccc(F)c2)[C@H]31
- Activity (LoVo [1]): 27.11%
- Activity (LoVo [2]): 10.27%
- Activity (LoVo [3]): 53.62%
- Activity (RKO [4]): 49.95%
- IC50 (MGC-803): 120 nM
- Activity (RKO [5]): 21.72%
- IC50 (HT-29): 130 nM
- Activity (RKO [6]): 29.55%
- Activity (LoVo [7]): 36.4%
- CL/F [8]: 57.2 mL/min/kg
- Activity (RKO [9]): 16.95%
- Activity (RKO [10]): Dose-dependent-effect
- Activity (LoVo [11]): Dose-dependent-effect
- Activity (LoVo [12]): 19.93%
- Activity (LoVo [13]): Dose-dependent-effect
- remaining at 48 h [14]: 40.2%
- Cmax [15]: 7080 ng/mL
- IC50 (RKO [16]): 50 nM
- solubility [17]: 11.4 µg/mL (≈ 17.7 µM)
- inhibition [18]: Active
- Activity (Mitochondrial membrane): 85.1%
- IC50 (HGC-27): 110 nM
- remaining at 48 h [19]: 67.8%
- Activity [20]: Non-toxic
